Data taken from US8748452B2, “Indolizine derivative and use thereof for medical purposes” (Kissei Pharmaceutical Co., Ltd., priority 2009, dated 2014).

Assays:
[1] = biological target: T1, Xanthine oxidase (from bovine milk, Sigma) (Bos taurus, UniProt P80457); assay: Xanthine oxidase inhibitory activity; type: biochemical; conditions: xanthine oxidase from bovine milk 0.02 units/mL, xanthine 200 μM, 10 minutes at room temperature, absorbance at 290 nm
T1 construct: Xanthine oxidase (from bovine milk, Sigma); purchased Sigma; host or cells: bovine milk
T1 sequence (P80457 whole entry): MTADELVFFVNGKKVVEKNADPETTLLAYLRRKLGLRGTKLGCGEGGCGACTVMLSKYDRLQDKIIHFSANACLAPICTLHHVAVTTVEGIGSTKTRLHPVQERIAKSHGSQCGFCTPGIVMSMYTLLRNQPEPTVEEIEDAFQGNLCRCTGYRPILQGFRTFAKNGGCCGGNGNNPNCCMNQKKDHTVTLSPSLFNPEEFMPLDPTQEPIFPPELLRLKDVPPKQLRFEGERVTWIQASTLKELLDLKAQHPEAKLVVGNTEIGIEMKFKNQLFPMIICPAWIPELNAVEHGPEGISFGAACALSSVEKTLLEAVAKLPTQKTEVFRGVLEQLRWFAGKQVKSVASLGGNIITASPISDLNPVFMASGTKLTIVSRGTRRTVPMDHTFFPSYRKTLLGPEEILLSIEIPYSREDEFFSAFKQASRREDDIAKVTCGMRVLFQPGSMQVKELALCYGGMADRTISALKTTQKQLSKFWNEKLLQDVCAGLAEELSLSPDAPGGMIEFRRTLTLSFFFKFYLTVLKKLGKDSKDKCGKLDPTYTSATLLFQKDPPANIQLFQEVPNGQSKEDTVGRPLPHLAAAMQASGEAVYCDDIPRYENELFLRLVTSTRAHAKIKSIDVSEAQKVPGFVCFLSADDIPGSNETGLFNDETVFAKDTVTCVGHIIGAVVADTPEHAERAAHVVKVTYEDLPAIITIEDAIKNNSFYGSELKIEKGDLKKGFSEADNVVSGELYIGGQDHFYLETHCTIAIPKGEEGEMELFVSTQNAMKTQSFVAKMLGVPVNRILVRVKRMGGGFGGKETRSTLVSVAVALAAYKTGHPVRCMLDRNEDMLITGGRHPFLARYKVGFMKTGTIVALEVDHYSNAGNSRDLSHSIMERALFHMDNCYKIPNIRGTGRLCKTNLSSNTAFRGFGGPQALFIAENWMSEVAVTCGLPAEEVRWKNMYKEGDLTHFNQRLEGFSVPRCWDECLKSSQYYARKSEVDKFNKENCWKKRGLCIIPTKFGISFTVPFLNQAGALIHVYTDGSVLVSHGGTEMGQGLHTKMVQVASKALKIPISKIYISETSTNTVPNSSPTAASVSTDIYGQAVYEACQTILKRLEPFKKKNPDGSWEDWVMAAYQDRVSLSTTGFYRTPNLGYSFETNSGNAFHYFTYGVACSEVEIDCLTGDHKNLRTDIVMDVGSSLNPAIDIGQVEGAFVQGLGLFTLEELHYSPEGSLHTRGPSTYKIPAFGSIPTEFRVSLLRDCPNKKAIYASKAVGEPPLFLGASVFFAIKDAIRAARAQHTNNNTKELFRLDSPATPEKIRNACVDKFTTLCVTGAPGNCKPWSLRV
Protocol: (1) Preparation of test compounds
Test compounds were dissolved in DMSO (Wako pure chemical) at 40 mM concentration and then diluted to intended concentrations with phosphate-buffered saline (PBS).
(2) Method for measurement
Xanthine oxidase (from bovine milk, Sigma) was prepared with phosphate-buffered saline (PBS) at 0.02 units/mL, and then the solution was added to 96 well plates at 50 μL/well. In addition, test compounds diluted with PBS were added at 50 μL/well. Xanthine (Wako pure chemical) at 200 μM prepared with PBS was added at 100 μL/well, and the mixture was reacted for 10 minutes at room temperature. Absorbance at 290 nm was measured using a microplate reader SpectraMax Plus 384 (Molecular device). The absorbance under a condition without xanthine is 0%, and control without test compounds is 100%. Fifty % inhibitory concentration (IC50) of test compounds was calculated (Table 17). Ex. No. in the table indicates Example number.

male CD (SD) IGS rats = assay: Serum hypouricemic effect; type: in vivo; conditions: Rattus norvegicus; 1 mg/kg oral gavage, overnight fasted male rats, serum at 2 hours after administration; read-out: percent decrease in uric acid
Protocol: Test compounds at 1 mg/kg suspended in 0.5% methylcellulose solution were administered by oral gavage administration to overnight fasted male CD (SD) IGS rats (5-week-old, Charls River Japan). At 2 hours after administration, blood was collected under ether anesthesia from abdominal aorta, and serum was separated according to general method. Serum uric acid values were determined by use of uric acid measurement kit (Uric acid C-Test Wako: Wako pure chemical), and percent decrease in uric acid was calculated according to the formula described below. As a result, it was shown that compounds of Examples 2, 7, 10, 22, 23, 25, 37, 49, 50 and 58 have over 60% percent decrease in uric acid.
Percent decrease in uric acid (%)=(Serum uric acid values in control animals−Serum uric acid values in animals administered test compounds)×100/Serum uric acid values in control animals

Row | Compound | IC50 [1] [nM] | inhibition in vivo at 1 mg/kg (male CD (SD) IGS rats) [%]
1 | Cc1cc2c(C#N)cc(-c3ccc(C(=O)O)c(O)c3)n2cc1Cl [Example 49] | 2 | > 60
2 | Cc1nc(-c2cc(C#N)c3ccccn23)sc1C(=O)O [Example 71] | 20 | 
3 | N#Cc1cc(-c2ccc(C(=O)O)c(O)c2)n2ccc(-c3cnco3)cc12 [Example 57] | 4 | 
4 | CCc1cccn2c(-c3ccc(C(=O)O)cc3)cc(C#N)c12 [Example 11] | 4 | 
5 | Cc1ccn2c(-c3ccc(C(=O)O)c(O)c3)cc(C#N)c2c1Cl [Example 50] | 2 | > 60
6 | Cc1ccn2c(-c3ccc(C(=O)O)c(O)c3)cc(C#N)c2c1F [Example 23] | 3 | > 60
7 | Cc1ccn2c(-c3ccc(C(=O)O)c(F)c3)cc(C#N)c2c1F [Example 34] | 10 | 
8 | CC(C)(C)c1ccn2c(-c3ccc(C(=O)O)c(O)c3)cc(C#N)c2c1 [Example 56] | 2 | 
9 | Cc1cc(C)c2c(C#N)cc(-c3ccc(C(=O)O)c(O)c3)n2c1 [Example 21] | 4 | 
10 | Cc1ccc2c(C#N)cc(-c3ccc(C(=O)O)c(O)c3)n2c1 [Example 20] | 5 | 
11 | N#Cc1c(F)c(-c2ccc(C(=O)O)cc2)n2ccccc12 [Example 61, 4-(1-Cyano-2-fluoroindolizine-3-yl) benzoic acid] | 68 | 
12 | COc1cc2c(C#N)cc(-c3ccc(C(=O)O)c(O)c3)n2cc1C [Example 60] | 15 | 
13 | COc1ccn2c(-c3ccc(C(=O)O)c(O)c3)cc(C#N)c2c1 [Example 58] | 2 | > 60
14 | CN(C)c1ccn2c(-c3ccc(C(=O)O)c(O)c3)cc(C#N)c2c1 [Example 59] | 10 | 
15 | COc1cc2c(C#N)cc(-c3ccc(C(=O)O)cc3)n2cc1C [Example 46] | 8 | 
16 | N#Cc1ccn2c(-c3ccc(C(=O)O)c(O)c3)cc(C#N)c2c1 [Example 54] | 3 | 
17 | Cc1cccn2c(-c3ccc(C(=O)O)c(O)c3)cc(C#N)c12 [Example 19] | 3 | 
18 | Cc1c(Cl)ccn2c(-c3ccc(C(=O)O)c(O)c3)cc(C#N)c12 [Example 52] | 2 | 

Row | Compound | IC50 [1] [nM] | inhibition in vivo at 1 mg/kg (male CD (SD) IGS rats) [%]
19 | N#Cc1cc(-c2ccc(C(=O)O)c(O)c2)n2cc(F)c(C(F)(F)F)cc12 [Example 48] | 6 | 
20 | N#Cc1cc(-c2ccc(C(=O)O)c(N)c2)n2ccccc12 [Example 30, 2-Amino-4-(1-cyanoindolizine-3-yl) benzoic acid] | 8 | 
21 | N#Cc1cc(-c2ccc(C(=O)O)c(O)c2)n2ccccc12 [Example 17, 4-(1-Cyanoindolizine-3-yl)-2-hydroxybenzoic acid] | 4 | 
22 | N#Cc1cc(-c2ccc(C(=O)O)c(F)c2)n2ccccc12 [Example 33] | 30 | 
23 | Cc1ccn2c(-c3cnc(C(=O)O)c(O)c3)cc(C#N)c2c1 [Example 66] | 2 | 
24 | Cc1ccn2c(-c3cnc(C(=O)O)c(O)c3)cc(C#N)c2c1F [Example 67] | 2 | 
25 | N#Cc1cc(-c2ccc(C(=O)O)nc2)n2ccccc12 [Example 70] | 18 | 
26 | CC(=O)c1ccn2c(-c3ccc(C(=O)O)c(O)c3)cc(C#N)c2c1 [Example 53] | 3 | 
27 | N#Cc1cc(-c2cnc(C(=O)O)c(O)c2)n2ccccc12 [Example 65] | 8 | 
28 | Cc1cc(C)c2c(C#N)cc(-c3ccc(C(=O)O)cc3)n2c1 [Example 6] | 9 | 
29 | Cc1ccn2c(-c3ccc(C(=O)O)c(O)c3)cc(C#N)c2c1C [Example 51] | 5 | 
30 | N#Cc1c(F)c(-c2ccc(C(=O)O)c(O)c2)n2ccccc12 [Example 62, 4-(1-Cyano-2-fluoroindolizine-3-yl)-2-hydroxybenzoic acid] | 4 | 
31 | N#Cc1cc(-c2ccc(C(=O)O)cc2)n2ccc3c(c12)CCCC3 [Example 9] | 3 | 
32 | N#Cc1cc(-c2ccc(C(=O)O)c(O)c2)n2ccc(CF)cc12 [Example 63, 4-(1-Cyano-7-fluoromethylindolizine-3-yl)-2-hydroxybenzoic acid] | 8 | 
33 | N#Cc1cc(-c2ccc(C(=O)O)s2)n2ccccc12 [Example 28] | 3 | 
34 | N#Cc1cc(-c2ccc(C(=O)O)c(O)c2)n2cccc(F)c12 [Example 25] | 5 | > 60
35 | COc1cccn2c(-c3ccc(C(=O)O)cc3)cc(C#N)c12 [Example 41] | 5 | 
36 | CCc1cccn2c(-c3ccc(C(=O)O)c(O)c3)cc(C#N)c12 [Example 24] | 6 | 

More lines, main results first:

Row | IC50 [1] [nM] | Compound | inhibition in vivo at 1 mg/kg (male CD (SD) IGS rats) [%]
37 | 18 | N#Cc1cc(-c2ccc(C(=O)O)cc2)n2cc(F)ccc12 [Example 14] | 
38 | 11 | CCc1ccc2c(C#N)cc(-c3ccc(C(=O)O)cc3)n2c1 [Example 12] | 
39 | 4 | Cc1ccn2c(-c3ccc(C(=O)O)cc3)cc(C#N)c2c1 [Example 2] | > 60
40 | 5 | Cc1ccn2c(-c3ccc(C(=O)O)cc3)cc(C#N)c2c1F [Example 7] | > 60
41 | 5 | COc1ccn2c(-c3ccc(C(=O)O)cc3)cc(C#N)c2c1 [Example 45] | 
42 | 4 | Cc1ccn2c(-c3ccc(C(=O)O)cc3)cc(C#N)c2c1Cl [Example 37] | > 60
43 | 8 | Cc1cc2c(C#N)cc(-c3ccc(C(=O)O)cc3)n2cc1Cl [Example 36] | 
44 | 7 | Cc1cccn2c(-c3ccc(C(=O)O)cc3)cc(C#N)c12 [Example 4] | 
45 | 10 | N#Cc1cc(-c2ccc(C(=O)O)cc2)n2ccc(C(F)(F)F)cc12 [Example 15] | 
46 | 6 | N#Cc1cc(-c2ccc(C(=O)O)cc2)n2cccc(Cl)c12 [Example 3] | 
47 | 5 | Cc1ccn2c(-c3ccc(C(=O)O)cc3)cc(C#N)c2c1C [Example 38] | 
48 | 8 | CCc1ccn2c(-c3ccc(C(=O)O)cc3)cc(C#N)c2c1 [Example 10] | > 60
49 | 3 | CC(C)(O)c1ccn2c(-c3ccc(C(=O)O)cc3)cc(C#N)c2c1 [Example 44] | 
50 | 8 | N#Cc1cc(-c2ccc(C(=O)O)cc2)n2ccc(Br)cc12 [Example 64] | 
51 | 4 | CC(C)c1ccn2c(-c3ccc(C(=O)O)cc3)cc(C#N)c2c1 [Example 42] | 
52 | 8 | Cc1c(Cl)ccn2c(-c3ccc(C(=O)O)cc3)cc(C#N)c12 [Example 39] | 
53 | 7 | N#Cc1cc(-c2ccc(C(=O)O)cc2)n2ccccc12 [Example 1, 4-(1-Cyanoindolizine-3-yl) benzoic acid] | 
54 | 2 | CC(C)(C)c1ccn2c(-c3ccc(C(=O)O)cc3)cc(C#N)c2c1 [Example 43] | 
55 | 9 | N#Cc1cc(-c2ccc(C(=O)O)cc2)n2cccc(F)c12 [Example 13] | 
56 | 5 | N#Cc1cc(-c2ccc(C(=O)O)c(O)c2)n2ccc(C(F)(F)F)cc12 [Example 27] | 
57 | 2 | CC(C)Oc1ccn2c(-c3ccc(C(=O)O)cc3)cc(C#N)c2c1C(F)(F)F [Example 47, 4-(1-Cyano-7-isopropoxy-8-trifluoromethylindolizine-3-yl) benzoic acid] | 
